Results published in ChEMBL document CHEMBL1201862, “PubChem BioAssay data set” (2004).
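Each compound was tested at five concentrations against cells in 96-well plates for 48 hours. The concentration for 50% growth inhibition is given as GI50.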 Activity calls are given as the source filed them. Cut-off read from the data, not from the text of the source: active = GI50 up to about 1.1 µM and inactive = higher.

Columns and labels:
Experiment in all cases: NCI anticancer screen, dose series, 48 h
SK-OV-3 = tested on: SK-OV-3
CCRF-CEM = tested on: CCRF-CEM
RXF 393 = tested on: RXF 393
NCI/ADR-RES = tested on: NCI/ADR-RES
MCF7 = tested on: MCF7
EKVX = tested on: EKVX
NCI-H522 = tested on: NCI-H522
LXFL 529 = tested on: LXFL 529
SR = tested on: SR
SN12C = tested on: SN12C
NCI-H23 = tested on: NCI-H23
DMS-114 = tested on: DMS-114
UACC-62 = tested on: UACC-62
ACHN = tested on: ACHN
SNB-75 = tested on: SNB-75
TK-10 = tested on: TK-10

Measured: GI50

COc1cc(/C=C(\C#N)C(N)=O)cc(Br)c1O
inactive: SK-OV-3 > 100 µM | CCRF-CEM > 100 µM | RXF 393 > 100 µM | NCI/ADR-RES > 100 µM | MCF7 95.1 µM

CC1SC(c2ccccc2)N(Nc2c3ccccc3nc3ccccc23)C1=O (configuration not stated)
inactive: EKVX 48.2 µM | SK-OV-3 28.4 µM | CCRF-CEM 69.8 µM | NCI-H522 40 µM | LXFL 529 43.3 µM | SR 42.6 µM | SN12C > 100 µM | NCI-H23 50.4 µM | DMS-114 45.5 µM | UACC-62 89.5 µM | ACHN > 100 µM | SNB-75 34.6 µM

CCCCCCCCCCCCCCCCCC(=O)OCC1OC(OC)C(NC(=O)N(CCCl)N=O)C(O)C1O (configuration not stated)
inactive: TK-10 38.3 µM | NCI-H522 17.1 µM | RXF 393 17 µM | LXFL 529 17.3 µM | SR 9.04 µM | SN12C 11.4 µM | NCI-H23 16.4 µM | UACC-62 2.99 µM | ACHN 15.7 µM | SNB-75 13.8 µM
